Measurements: the Kinase Knowledgebase extract (Sharma et al. 2016)
pIC50: −log10 of the molar value. Values joined by “and” are separate entries in the source; they are usually repeats but may differ in a detail not shown here. Equal entries are not always repeated.

Experiments:
EGFR (human) [1] = target: EGFR (human) (UniProt P00533); conditions: A431 epidermoid carcinoma
PIK3CD (Human) [2] = target: PIK3CD (Human) (UniProt O00329); assay: Inhibition of PIK3CD Kinase Activity
PIK3CD (Human) [3] = target: PIK3CD (Human) (UniProt O00329); assay: Cellular Inhibition of PIK3CD Kinase in Raji (Burkitt’s Lymphoma) Cells
PIK3CG (human) [4] = target: PIK3CG (human) (UniProt P48736); assay: Inhibition of PIK3CG Kinase Activity
Chain of PIK3CG (human) (P48736 whole entry, looked up): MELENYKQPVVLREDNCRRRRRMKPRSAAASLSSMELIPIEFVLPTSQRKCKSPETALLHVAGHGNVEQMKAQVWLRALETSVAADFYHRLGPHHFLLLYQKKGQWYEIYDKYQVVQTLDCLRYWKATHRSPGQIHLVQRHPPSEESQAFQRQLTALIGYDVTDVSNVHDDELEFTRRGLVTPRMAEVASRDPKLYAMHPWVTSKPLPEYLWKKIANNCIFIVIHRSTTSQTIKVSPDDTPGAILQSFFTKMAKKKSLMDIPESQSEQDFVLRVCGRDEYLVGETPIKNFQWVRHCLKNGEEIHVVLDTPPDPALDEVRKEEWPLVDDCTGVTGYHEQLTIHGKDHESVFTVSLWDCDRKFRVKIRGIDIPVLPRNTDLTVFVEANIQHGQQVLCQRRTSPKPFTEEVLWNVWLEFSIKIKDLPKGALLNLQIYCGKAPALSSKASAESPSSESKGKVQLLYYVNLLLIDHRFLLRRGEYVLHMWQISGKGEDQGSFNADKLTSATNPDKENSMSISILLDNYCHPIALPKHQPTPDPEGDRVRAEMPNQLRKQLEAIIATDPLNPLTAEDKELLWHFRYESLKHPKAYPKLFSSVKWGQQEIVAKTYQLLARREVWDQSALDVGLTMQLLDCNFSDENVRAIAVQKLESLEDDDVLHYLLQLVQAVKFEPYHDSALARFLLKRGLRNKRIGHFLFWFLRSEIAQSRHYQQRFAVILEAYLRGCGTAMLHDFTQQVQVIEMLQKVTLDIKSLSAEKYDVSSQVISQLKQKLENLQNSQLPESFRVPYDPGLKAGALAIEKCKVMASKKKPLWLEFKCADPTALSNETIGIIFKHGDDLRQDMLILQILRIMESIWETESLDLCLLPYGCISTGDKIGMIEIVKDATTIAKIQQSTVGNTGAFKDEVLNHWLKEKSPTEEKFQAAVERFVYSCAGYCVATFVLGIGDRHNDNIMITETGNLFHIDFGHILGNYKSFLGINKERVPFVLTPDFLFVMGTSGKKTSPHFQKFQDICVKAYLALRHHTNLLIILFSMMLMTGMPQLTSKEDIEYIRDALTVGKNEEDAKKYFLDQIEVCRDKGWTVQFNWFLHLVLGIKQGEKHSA

PIK3CB (Human) [5] = target: PIK3CB (Human) (UniProt P42338); assay: Inhibition of PIK3CB Kinase Activity
[6] = target: EGFR (human), P00533 [WT]
[7] = target: EGFR (Human), P00533 [T790M/L858R]
EGFR (human) [8] = target: EGFR (human) (UniProt P00533); conditions: a431
MAPK14 [9] = target: MAPK14 (UniProt Q16539); assay: MAPK14 Binding Inhibition
Chain of MAPK14 (Q16539 whole entry, looked up): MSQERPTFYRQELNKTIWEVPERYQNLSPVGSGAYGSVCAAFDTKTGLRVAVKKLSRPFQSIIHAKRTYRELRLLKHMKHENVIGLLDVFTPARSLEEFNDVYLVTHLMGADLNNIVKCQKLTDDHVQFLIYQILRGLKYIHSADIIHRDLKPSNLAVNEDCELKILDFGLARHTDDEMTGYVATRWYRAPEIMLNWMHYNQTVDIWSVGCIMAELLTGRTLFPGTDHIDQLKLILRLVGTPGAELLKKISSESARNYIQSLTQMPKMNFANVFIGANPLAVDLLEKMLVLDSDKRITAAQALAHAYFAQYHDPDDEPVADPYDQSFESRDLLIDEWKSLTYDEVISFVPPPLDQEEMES

[10] = test system: CDK2 (sprague-dawley rat); conditions: dose or concentration not given here
[11] = target: EGFR (Human), P00533 [T790M/L858R]; conditions: h1975
PIK3CA = PIK3CA (UniProt P42336)
EGFR [12] = target: EGFR (UniProt P00533)
Chain of EGFR (P00533 whole entry, looked up): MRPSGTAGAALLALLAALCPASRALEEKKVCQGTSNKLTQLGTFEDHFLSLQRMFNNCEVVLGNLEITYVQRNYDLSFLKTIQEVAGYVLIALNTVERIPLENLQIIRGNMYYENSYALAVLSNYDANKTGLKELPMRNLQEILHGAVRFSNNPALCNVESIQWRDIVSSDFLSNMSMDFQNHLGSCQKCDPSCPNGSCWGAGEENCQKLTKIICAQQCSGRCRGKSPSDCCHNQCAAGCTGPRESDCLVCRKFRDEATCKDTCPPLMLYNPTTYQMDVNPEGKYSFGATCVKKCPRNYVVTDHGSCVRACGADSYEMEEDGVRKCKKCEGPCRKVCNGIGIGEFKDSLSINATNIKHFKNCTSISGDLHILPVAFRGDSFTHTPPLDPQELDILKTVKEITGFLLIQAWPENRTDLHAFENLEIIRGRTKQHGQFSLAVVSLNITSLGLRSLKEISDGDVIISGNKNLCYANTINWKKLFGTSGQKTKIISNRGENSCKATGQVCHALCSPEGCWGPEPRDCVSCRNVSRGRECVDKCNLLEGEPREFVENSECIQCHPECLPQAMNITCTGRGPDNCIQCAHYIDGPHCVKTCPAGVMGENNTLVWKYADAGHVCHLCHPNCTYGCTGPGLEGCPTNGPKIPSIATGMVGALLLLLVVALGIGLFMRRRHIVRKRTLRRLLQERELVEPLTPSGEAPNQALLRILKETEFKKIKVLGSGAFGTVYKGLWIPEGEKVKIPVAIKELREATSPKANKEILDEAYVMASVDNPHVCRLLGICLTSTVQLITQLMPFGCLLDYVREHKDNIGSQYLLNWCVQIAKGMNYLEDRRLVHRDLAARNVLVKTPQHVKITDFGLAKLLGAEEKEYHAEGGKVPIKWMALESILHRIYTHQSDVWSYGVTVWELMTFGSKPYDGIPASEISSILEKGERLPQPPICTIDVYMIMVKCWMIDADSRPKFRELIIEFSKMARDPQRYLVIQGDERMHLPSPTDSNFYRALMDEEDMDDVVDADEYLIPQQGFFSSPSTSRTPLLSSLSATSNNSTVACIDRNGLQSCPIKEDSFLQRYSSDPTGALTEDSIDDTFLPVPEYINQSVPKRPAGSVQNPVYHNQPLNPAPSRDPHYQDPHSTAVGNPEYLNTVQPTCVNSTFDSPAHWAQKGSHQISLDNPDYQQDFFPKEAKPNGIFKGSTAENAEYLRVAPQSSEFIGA

PIK3CD (Human) [13] = target: PIK3CD (Human) (UniProt O00329); assay: Enzyme Assay
PIK3CB (Human) [14] = target: PIK3CB (Human) (UniProt P42338); assay: Enzyme Assay
PIK3CA (human) = PIK3CA (human) (UniProt P42336); assay: Enzyme Assay
PIK3CG (human) [15] = target: PIK3CG (human) (UniProt P48736); assay: Enzyme Assay
PIK3CD (Human) [16] = target: PIK3CD (Human) (UniProt O00329); assay: Cell-Based Assay; conditions: raji
MAPK14 (human) [17] = target: MAPK14 (human) (UniProt Q16539); assay: MIP-1 Beta Assay (T cells)
Chain of MAPK14 (human) (Q16539 whole entry, looked up): as the sequence (Q16539 whole entry, looked up) above

MAPK14 (human) [18] = target: MAPK14 (human) (UniProt Q16539); assay: MIP-1 alpha Assay (T cells)
EGFR [19] = target: EGFR (UniProt P00533); remark: listed apart in the source
MAPK14 (rat) = assay: p38-alpha Inhibition (Collagen-Induced Arthritis)
MAPK14 [20] = target: MAPK14 (UniProt Q16539)
MAPK14 [21] = target: MAPK14 (UniProt Q16539); remark: listed apart in the source
EGFR (human) [22] = target: EGFR (human) (UniProt P00533); conditions: A431
EGFR [23] = target: EGFR (UniProt P00533); remark: listed apart in the source
MAPK14 [24] = target: MAPK14 (UniProt Q16539); assay: p38 Inhibition (Phosphorylation of EGF Receptor Peptide)
MAPK14 [25] = target: MAPK14 (UniProt Q16539); assay: p38-alpha2 Inhibition (E. coli); conditions: concentration not given here
CDK2 (human) [26] = target: CDK2 (human) (UniProt P24941); assay: Enzyme Assay
CDK2 (human) [27] = target: CDK2 (human) (UniProt P24941); assay: Enzyme Assay; remark: listed apart in the source
MAPK14 (human) [28] = target: MAPK14 (human) (UniProt Q16539); assay: p38-mediated TNF-alpha Inhibition (THP1 Cells)
MAPK14 [29] = target: MAPK14 (UniProt Q16539); assay: p38 Kinase Inhibition
[30] = test system: MAPK14 (sprague-dawley rat); assay: p38-mediated TNF-alpha Inhibition (Sprauge-Dawley Rats); conditions: dose or concentration not given here
CDK2 (human) [31] = target: CDK2 (human) (UniProt P24941); assay: Enzyme Assay; remark: listed apart in the source
CDK2 (human) [32] = target: CDK2 (human) (UniProt P24941); assay: Enzyme Assay; remark: listed apart in the source

Chain of PIK3CD (Human) (O00329 whole entry, looked up): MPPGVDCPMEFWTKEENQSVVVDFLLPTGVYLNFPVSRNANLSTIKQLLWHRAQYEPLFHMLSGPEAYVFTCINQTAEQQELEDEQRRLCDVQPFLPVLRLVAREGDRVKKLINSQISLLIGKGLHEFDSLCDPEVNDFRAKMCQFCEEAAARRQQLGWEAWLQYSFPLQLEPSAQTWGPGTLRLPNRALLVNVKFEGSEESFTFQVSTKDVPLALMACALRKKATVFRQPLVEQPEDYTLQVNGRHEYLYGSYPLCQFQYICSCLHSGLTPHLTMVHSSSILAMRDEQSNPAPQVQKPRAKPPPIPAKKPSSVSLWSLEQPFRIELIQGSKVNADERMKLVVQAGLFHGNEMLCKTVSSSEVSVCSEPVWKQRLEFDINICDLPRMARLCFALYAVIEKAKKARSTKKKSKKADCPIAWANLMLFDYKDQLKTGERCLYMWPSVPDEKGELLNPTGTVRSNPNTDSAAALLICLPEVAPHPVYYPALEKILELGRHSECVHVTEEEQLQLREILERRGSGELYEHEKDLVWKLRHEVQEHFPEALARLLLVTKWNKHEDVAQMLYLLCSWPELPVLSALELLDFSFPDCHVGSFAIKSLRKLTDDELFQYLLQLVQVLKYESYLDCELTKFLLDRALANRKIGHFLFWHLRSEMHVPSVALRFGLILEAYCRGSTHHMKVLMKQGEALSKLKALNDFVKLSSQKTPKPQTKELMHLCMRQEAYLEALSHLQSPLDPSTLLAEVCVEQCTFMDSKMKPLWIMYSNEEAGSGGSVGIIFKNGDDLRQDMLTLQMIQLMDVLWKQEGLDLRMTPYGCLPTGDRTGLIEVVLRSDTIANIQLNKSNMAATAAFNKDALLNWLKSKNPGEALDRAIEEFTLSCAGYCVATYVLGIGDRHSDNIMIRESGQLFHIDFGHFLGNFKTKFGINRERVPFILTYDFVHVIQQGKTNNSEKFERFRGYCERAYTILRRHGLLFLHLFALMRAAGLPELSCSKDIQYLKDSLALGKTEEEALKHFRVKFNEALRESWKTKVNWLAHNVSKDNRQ
Chain of EGFR (human) (P00533 whole entry, looked up): as the sequence (P00533 whole entry, looked up) above

With `Cn1c(SSc2c(C(=O)Nc3ccccc3)c3ccc(C(F)(F)F)cc3n2C)c(C(=O)Nc2ccccc2)c2cc(C(F)(F)F)ccc21` as the molecule, how does the pIC50 (EGFR (human) [1]) read?
Its pIC50 is < 4.00.

With `CC(C)(Cc1ccccc1Br)Nc1nc(N2CCOCC2)nc(-n2c(C(F)F)nc3ccccc32)n1` as the molecule, how does the pIC50 (PIK3CD (Human) [2]) read?
Its pIC50 is > 7.00.

What about the pIC50 (PIK3CD (Human) [3]) of the same molecule?
Its pIC50 is > 7.00.

And the pIC50 (PIK3CG (human) [4])?
Its pIC50 is 6.30 to 6.70.

And the pIC50 (PIK3CB (Human) [5])?
The pIC50 was > 7.00.

How did the pIC50 [6] turn out when `COc1cc(N2CCN(C(C)=O)CC2)ccc1Nc1ncc(Cl)c(-c2c[nH]c3ccccc23)n1` was run?
Its pIC50 is 7.10.

How did the pIC50 [7] turn out when `C=CC(=O)Nc1cccc(N2C(=O)N(Cc3ccccc3)Cc3cnc(Nc4ccc(N5CCN(C)CC5)cc4OC)nc32)c1` was run?
The pIC50 was 9.15.

With `COc1cc2cc3ncc(C#N)c(Nc4ccc(F)c(Cl)c4)c3cc2cc1OC` as the molecule, how does the pIC50 (EGFR (human) [8]) read?
Its pIC50 is 6.17.

With `COc1cc(-c2c(-c3ccc(F)cc3)ncn2C2CCNCC2)ccn1` as the molecule, how does the pIC50 (MAPK14 [9]) read?
Its pIC50 is > 4.30.

For `CN1CC[C@@H](c2c(O)cc(O)c3c(=O)cc(-c4ccccc4Cl)oc23)[C@@H](O)C1`, which response [10] is on record?
The response was 4.2%.

`C=CC(=O)NCCN1C(=O)N(Cc2ccccc2)Cc2cnc(Nc3ccc(N4CCN(C)CC4)cc3OC)nc21` was tested. Which pIC50 [11] did it give?
The pIC50 was < 5.00.

`O=c1c(O)c(-c2ccc(O)c(O)c2)oc2cc(O)cc(O)c12` was tested. Which pIC50 (PIK3CA) did it give?
Its pIC50 is 5.42.

How did the pIC50 (EGFR [12]) turn out when `CO[C@H]1[C@@H](N(C)C2C=NC=CN2)C[C@@H]2O[C@@]1(C)n1c3ccccc3c3c4c(c5c6ccccc6n2c5c31)C(=O)NC4` (some centres undefined) was run?
The pIC50 was 5.09.

How did the pIC50 (PIK3CD (Human) [13]) turn out when `C[C@H](NC(=O)c1c(N)nn2cccnc12)c1cc2cccc(Cl)c2c(=O)n1CCNS(=O)(=O)C(F)(F)F` was run?
The pIC50 was 5.00 to 6.00.

And the pIC50 (PIK3CB (Human) [14])?
The pIC50 was 5.00 to 6.00.

What about the pIC50 (PIK3CA (human)) of the same molecule?
Its pIC50 is 5.00 to 6.00.

What about the pIC50 (PIK3CG (human) [15]) of the same molecule?
The pIC50 was 6.00 to 6.30.

And the pIC50 (PIK3CD (Human) [16])?
Its pIC50 is 7.00 to 8.00.

`CC(=NNC(=N)N)c1cc(NC(=O)CCCCCCCCC(=O)Nc2cc(C(C)=NNC(=N)N)cc(C(C)=NNC(=N)N)c2)cc(C(C)=NNC(=N)N)c1` was tested. Which expression (MAPK14 (human) [17]) did it give?
The expression was 3800 pg/mL and 10400 pg/mL.

And the expression (MAPK14 (human) [18])?
The expression was 10500 pg/mL and 5700 pg/mL.

With `O=C(O)CCC1C(=S)Nc2ccccc21` (centres undefined) as the molecule, how does the pIC50 (EGFR [19]) read?
Its pIC50 is < 5.79.

With `CN1CCC(O)(c2nc(-c3ccc(F)cc3)c(-c3ccncc3)o2)CC1` as the molecule, how does the ED50 (MAPK14 (rat)) read?
Its ED50 is 20 mg/kg/day.

How did the pIC50 (MAPK14 [20]) turn out when `O=C(CN1CCNCC1)Nc1cccc(Oc2nccc(-c3c(-c4ccc(F)cc4)ncn3C3CCNCC3)n2)c1` was run?
Its pIC50 is > 4.30.

What about the pIC50 (MAPK14 [21]) of the same molecule?
The pIC50 was > 4.30.

`Nc1ccc2c(NCc3ccccc3)ncnc2c1` was tested. Which pIC50 (EGFR (human) [22]) did it give?
The pIC50 was 5.90.

With `O=C(Nc1cccc(Nc2nccc(-c3cccnc3)n2)c1)c1ccccc1S` as the molecule, how does the pIC50 (EGFR [23]) read?
Its pIC50 is < 4.30.

`O=c1ncn2nc(Sc3ccccc3)ccc2c1-c1ccccc1` was tested. Which pIC50 (MAPK14 [24]) did it give?
The pIC50 was < 4.70.

How did the inhibition (MAPK14 [25]) turn out when `COC(=O)c1sc(C(C)(C)C)cc1NC(=O)Nc1ccc(C(N)=O)cc1` was run?
Its inhibition is 23%.

`COc1cc(F)ccc1-c1cc(Nc2cc(CS(C)(=O)=NC#N)ccn2)ncc1F` (centres undefined) was tested. Which pIC50 (CDK2 (human) [26]) did it give?
The pIC50 was 7.14.

What about the pIC50 (CDK2 (human) [27]) of the same molecule?
Its pIC50 is 5.85.

With `Nc1c(C(=O)c2cccc(NC=NO)c2)cnn1-c1ccc(F)cc1` as the molecule, how does the pIC50 (MAPK14 (human) [28]) read?
The pIC50 was 6.77.

What about the pIC50 (MAPK14 [29]) of the same molecule?
The pIC50 was 5.84.

And the inhibition [30]?
Its inhibition is 76%.

Which results are given for `CN1CCN(c2ccc(Nc3ncc4cc(C#N)c(=O)n(C5CCCC5)c4n3)cc2)CC1`?
pIC50 (CDK2 (human) [31]): 5.87; pIC50 (PIK3CB (Human) [14]): 6.12; pIC50 (PIK3CA (human)): 5.97; pIC50 (CDK2 (human) [26]): 7.01; pIC50 (PIK3CG (human) [15]): 5.95; pIC50 (CDK2 (human) [32]): 6.11
